Measured values taken from the supplement of paper PMC7023306.
± gives the uncertainty stated by the source.

Test: TIMS collision cross section in N2 (TIMS CCS N2); higher = larger gas-phase ion size
Conditions: drift gas: N2 (99.4% N2, 0.6% O2), calibration: Stow et al. 2017 values for Agilent ESI-L Low Concentration Tune Mix, ionization: negative ESI
Method: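 Authentic plant natural product standards (10-50 ppm in 80% methanol) were analysed by UHPLC (BEH C18, 60 °C) coupled to a Bruker timsTOF Pro in negative ESI with N2 drift gas. TIMS collision cross sections were computed from mobility peak apices after calibration with Agilent Tune Mix using Stow et al. reference values. Values are the average of triplicate runs on different days, reported per annotated ion species (deprotonated ion, adducts, dimer, oxidized ion).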

| SMILES | TIMS collision cross section in N2 (ion species: [2M-H]-) [Å²] | TIMS collision cross section in N2 (ion species: [M-H]-) [Å²] | TIMS collision cross section in N2 (ion species: [M-H+Na+HCO2H]-) [Å²] | TIMS collision cross section in N2 (ion species: [M-H+HCO2H]-) [Å²] | TIMS collision cross section in N2 (ion species: [M-3H]-) [Å²] |
| --- | --- | --- | --- | --- | --- |
| COc1ccc(-c2cc3ccc(O)cc3oc2=O)cc1OC [3(3',4'-Dimethoxyphenyl)-7-hydroxycoumarin] | 276.72 ± 0.47 | 172.02 ± 0.17 |  |  |  |
| CCCCCCCCCCCCCCCCC(=O)O [Heptadecanoic acid] | 259.04 ± 0.54 | 174.45 ± 0.021 |  |  |  |
| O=c1cc(-c2ccc(O)cc2)oc2ccccc12 [4'-Hydroxyflavone] |  | 151.91 ± 0.13 |  |  |  |
| COc1ccc(-c2cc(=O)c3c(O)c(OC)c(O)c(OC)c3o2)cc1OC [Hymenoxin] |  | 190.48 ± 0.09 | 207.1 ± 0.28 |  |  |
| COc1ccc2c(c1)OC(c1ccccc1)CC2=O (centres undefined) [7-Methoxyflavanone] |  | 163.71 ± 0.025 |  |  |  |
| CCCCCCCCCCCCCCCCCC(=O)O [Stearic acid] |  | 178.54 ± 0.015 |  |  |  |
| CC1(C)C[C@H]2C3=CC[C@@H]4[C@@]5(C)CC[C@H](O)[C@](C)(CO)[C@@H]5CC[C@@]4(C)[C@]3(C)CC[C@@]2(C)[C@H](O)[C@@H]1O [soyasapogenol A] |  |  |  | 224.66 ± 0.27 |  |
| CC1(C)CC[C@]2(C)CC[C@]3(C)C(=CC[C@@H]4[C@@]5(C)CC[C@@H](O)[C@](C)(C(=O)O)[C@@H]5CC[C@]43C)[C@@H]2C1 [Boswellic acid, alpha-] |  | 222.31 ± 0.39 | 239.79 ± 0.21 |  |  |
| COc1cc2c(=O)c(-c3ccc(O)cc3)coc2cc1O [Glycitein] |  | 166.87 ± 0.13 | 184.69 ± 0.23 |  |  |
| O=C1CC(c2ccccc2)Oc2ccc(O)cc21 (centres undefined) [6-Hydroxyflavanone] | 244.54 ± 0.11 | 156.92 ± 0.15 |  |  |  |
| COc1ccc(C2CC(=O)c3c(O)cc(O)cc3O2)cc1OC (centres undefined) [5,7-dihydroxy-3',4'-dimethoxy-flavanone] | 238.03 ± 0.5 | 175.95 ± 0.1 | 195.74 ± 0.19 |  |  |
| COc1ccc([C@@H]2CC(=O)c3c(O)cc(O[C@@H]4O[C@H](CO)[C@@H](O)[C@H](O)[C@H]4O)cc3O2)cc1 [Isosakuranin] |  | 217.58 ± 0.11 |  | 213.68 ± 0.13 |  |
| COc1ccc(-c2cc3ccc(O)cc3oc2=O)cc1 [7-hydroxy 3(4- methoxyphenyl) coumarin] |  | 162.79 ± 0.25 |  |  |  |
| O=c1cc(-c2ccc(O)cc2)oc2cc(O[C@@H]3O[C@H](CO)[C@@H](O)[C@H](O)[C@H]3O[C@@H]3OC[C@](O)(CO)[C@H]3O)cc(O)c12 [apiin] |  | 223.96 ± 0.26 |  |  |  |
| C[C@H]1[C@H](C)CC[C@]2(C(=O)O)CC[C@]3(C)C(=CC[C@@H]4[C@@]5(C)C[C@@H](O)[C@@H](O)C(C)(C)[C@@H]5CC[C@]43C)[C@H]12 [Pygenic acid A] |  | 220.9 ± 0.38 |  |  |  |
| O=c1cc(-c2ccc(O)cc2)oc2cc(O)ccc12 [7,4'-dihydroxyflavone] | 221.31 ± 0.038 | 157.01 ± 0.16 |  |  |  |
| O=C(O)[C@H]1O[C@@H](Oc2cc3oc(-c4ccc(O)cc4)cc(=O)c3c(O)c2O)[C@H](O)[C@@H](O)[C@@H]1O [Scutellarein-7-glucuronide] |  |  |  |  | 202.76 ± 0.54 |
| CC1(C)CC[C@]2(C(=O)O)CC[C@]3(C)C(=CC[C@@H]4[C@@]5(C)CC[C@H](O)[C@@](C)(CO)[C@@H]5CC[C@]43C)[C@@H]2C1 [Hederagenin] |  | 222.47 ± 0.52 | 234.04 ± 0.57 |  |  |
| O=c1c(-c2ccc(O)c(O)c2)coc2cc(O)ccc12 [7,3',4'-TRIHYDROXYISOFLAVONE] |  | 162.61 ± 0.21 |  |  | 156.67 ± 0.24 |
| COc1cccc(-c2cc(=O)c3ccc(O)cc3o2)c1 [7-Hydroxy-3'-methoxyflavone] | 229.62 ± 0.17 | 165.22 ± 0.11 |  |  |  |
| O=c1c(O)c(-c2cc(O)c(O)c(O)c2)oc2cc(O)ccc12 [3,7,3',4',5'-Pentrahydroxyflavone (robinetin)] |  | 164.55 ± 0.2 |  |  | 160.55 ± 0.095 |
| COc1ccccc1-c1cc(=O)c2c(O)cc(O)cc2o1 [5,7-Dihydroxy-2'-methoxyflavone] | 238.49 ± 0.23 | 167.34 ± 0.07 |  |  |  |
| O=c1cc(-c2ccc(O)cc2)oc2cc(OC3O[C@H](CO)[C@@H](O)[C@H](O)[C@H]3O)cc(O)c12 (some centres undefined) [Apigenin-7-O-glucoside (apigetrin)] |  | 206.74 ± 0.14 | 228.65 ± 0.32 |  |  |

| SMILES | TIMS collision cross section in N2 (ion species: [2M-H]-) [Å²] | TIMS collision cross section in N2 (ion species: [M-H]-) [Å²] | TIMS collision cross section in N2 (ion species: [M-H+Na+HCO2H]-) [Å²] | TIMS collision cross section in N2 (ion species: [M-H+HCO2H]-) [Å²] | TIMS collision cross section in N2 (ion species: [M-3H]-) [Å²] |
| --- | --- | --- | --- | --- | --- |
| COc1cc(OC)c2c(c1)OC(c1ccc(O)cc1)CC2=O (centres undefined) [5,7-DIMETHOXY-4'-HYDROXYFLAVANONE] |  | 174.1 ± 0.31 |  |  |  |
| COc1cc(O)c2c(=O)c(-c3ccc(O)cc3)coc2c1 [Prunetin] | 264.09 ± 0.09 | 167.78 ± 0.0071 |  |  |  |
| O=c1cc(-c2ccc(O)c(O)c2)oc2cc(O)cc(O)c12 [Luteolin] | 234.87 ± 0.19 | 160.69 ± 0.18 |  |  |  |
| C[C@H]1[C@H](C)CC[C@]2(C(=O)O)CC[C@]3(C)C(=CC[C@@H]4[C@@]5(C)C[C@@H](O)[C@H](O)C(C)(C)[C@@H]5CC[C@]43C)[C@H]12 [Corosolic acid] |  | 220.34 ± 0.4 | 231.55 ± 0.4 |  |  |
| O=c1cc(-c2ccccc2)oc2ccc(O)cc12 [6-Hydroxyflavone] | 239.79 ± 0.056 | 155.92 ± 0.15 |  |  |  |
| O=c1c(O)c(-c2ccc(O)cc2O)oc2ccc(O)cc12 [3,6,2',4'-Tetrahydroxyflavone] |  | 161.99 ± 0.064 | 183.33 ± 0.05 |  |  |
| CC(C)=CCc1c(O)ccc2c1O[C@H](c1ccc(O)cc1)CC2=O [isobavachin] | 237.66 ± 0.46 | 185.17 ± 0.47 |  |  |  |
| O=c1c(O)c(-c2ccc(O)cc2)oc2cc(OC3OC(CO)C(O)C(O)C3O)cc(O)c12 (centres undefined) [kaempferol-7-O-glucoside] | 283.76 ± 0.75 | 209.17 ± 0.14 | 230.04 ± 0.3 |  |  |
| COc1ccc(-c2oc3c(CC=C(C)C)c(O[C@@H]4O[C@H](CO)[C@@H](O)[C@H](O)[C@H]4O)cc(O)c3c(=O)c2O[C@@H]2O[C@@H](C)[C@H](O)[C@@H](O)[C@H]2O)cc1 [Icariin] |  |  |  | 256.3 ± 1.1 |  |
| O=C1C[C@@H](c2ccc(O)cc2)Oc2cc(O)cc(O)c21 [Naringenin] |  | 163.01 ± 0.16 |  |  |  |
| O=c1c(-c2ccc(O)cc2)coc2cc(O[C@@H]3O[C@H](CO)[C@@H](O)[C@H](O)[C@H]3O)cc(O)c12 [Genistin] |  | 212.14 ± 0.076 |  | 220.37 ± 0.15 |  |
| COc1cc(OC)c(C(=O)C=Cc2ccc(O)cc2)c(OC)c1 [4-Hydroxy-2',4',6'-trimethoxychalcone (flavokawain A)] |  | 182.42 ± 0.24 |  |  |  |
| Oc1ccc(/C=C/c2cc(O)cc(O)c2)cc1 [Resveratrol] |  | 157.41 ± 0.0058 |  |  |  |
| COc1ccc(-c2cc(=O)c3c(O)c(OC)c(O)c(OC)c3o2)cc1 [nevadensin] |  | 182.82 ± 0.12 | 199.45 ± 0.091 |  |  |
| COc1ccc(-c2cc(=O)c3c(O)cc(O)cc3o2)cc1 [5,7-Dihydroxy-4'-methoxyflavone] |  | 170.87 ± 0.1 |  |  | 165.19 ± 0.13 |
| O=c1cc(-c2ccc(O)cc2)oc2cc(O)cc(O)c12 [Apigenin] | 238.72 ± 0.12 | 157.47 ± 0.15 |  |  |  |
| O=C1CC(c2ccc(O)c(O)c2)Oc2cc(O)c(O)cc21 (centres undefined) [6,7,3',4'-Tetrahydroxyflavanone] |  | 167.53 ± 0.27 |  |  | 161.92 ± 0.36 |
| COc1ccc(O)c2c1C(=O)CC(c1ccccc1)O2 (centres undefined) [8-Hydroxy-5-methoxyflavanone] |  | 165.83 ± 0.053 |  |  |  |
| COc1ccc(C2CC(=O)c3c(ccc(O)c3O)O2)cc1OC (centres undefined) [5,6-dihydroxy-3',4'-dimethoxy-flavanone] |  | 176.56 ± 0.17 | 192.04 ± 0.13 |  | 179.11 ± 0.078 |
| CC1(C)CC[C@]2(C(=O)O)CC[C@]3(C)C(=CC[C@@H]4[C@@]5(C)CC[C@H](O[C@@H]6OC[C@H](O)[C@H](O)[C@H]6O[C@@H]6O[C@H](CO)[C@@H](O)[C@H](O)[C@H]6O)[C@@](C)(CO)[C@@H]5CC[C@]43C)[C@@H]2C1 [Cauloside C] |  |  |  | 289.87 ± 0.76 |  |
| CCCCCCCCO[C@@H]1O[C@H](CO)[C@@H](O)[C@H](O)[C@H]1O [n-Octyl-beta-D-glucopyranoside] | 272.83 ± 0.74 | 181.3 ± 0.15 |  | 190.02 ± 0.2 |  |
| O=c1c(O)c(-c2ccc(O)c(O)c2)oc2cc(O)ccc12 [Fisetin] |  | 162.38 ± 0.017 |  |  | 157.48 ± 0.065 |
